Test results: patent US20260327204A1, “DEGRADERS OF CYCLIN-DEPENDENT KINASE 12/13, COMPOSITIONS, AND USES THEREOF” (ZHEJIANG UNIVERSITY, priority 2023, published 2026)

Assays:
[1] = target: CDK12 (Homo sapiens, UniProt Q9NYV4); assay: Western blot degradation of CDK12 (Example 3); type: cell-based; design: degradation of CDK12/13 protein in leukemia cells KASUMI-1, MV4-11, and Jurkat; endogenous in cells; conditions: DC50 classes; cell line not given; read-out: CDK12 degradation Activity
[2] = target: CDK13 (Homo sapiens, UniProt Q14004); assay: Western blot degradation of CDK13 (Example 3); type: cell-based; design: degradation of CDK12/13 protein in leukemia cells KASUMI-1, MV4-11, and Jurkat; endogenous in cells; conditions: DC50 classes; cell line not given; read-out: CDK13 degradation Activity
Chain of CDK13 (Q14004 whole entry): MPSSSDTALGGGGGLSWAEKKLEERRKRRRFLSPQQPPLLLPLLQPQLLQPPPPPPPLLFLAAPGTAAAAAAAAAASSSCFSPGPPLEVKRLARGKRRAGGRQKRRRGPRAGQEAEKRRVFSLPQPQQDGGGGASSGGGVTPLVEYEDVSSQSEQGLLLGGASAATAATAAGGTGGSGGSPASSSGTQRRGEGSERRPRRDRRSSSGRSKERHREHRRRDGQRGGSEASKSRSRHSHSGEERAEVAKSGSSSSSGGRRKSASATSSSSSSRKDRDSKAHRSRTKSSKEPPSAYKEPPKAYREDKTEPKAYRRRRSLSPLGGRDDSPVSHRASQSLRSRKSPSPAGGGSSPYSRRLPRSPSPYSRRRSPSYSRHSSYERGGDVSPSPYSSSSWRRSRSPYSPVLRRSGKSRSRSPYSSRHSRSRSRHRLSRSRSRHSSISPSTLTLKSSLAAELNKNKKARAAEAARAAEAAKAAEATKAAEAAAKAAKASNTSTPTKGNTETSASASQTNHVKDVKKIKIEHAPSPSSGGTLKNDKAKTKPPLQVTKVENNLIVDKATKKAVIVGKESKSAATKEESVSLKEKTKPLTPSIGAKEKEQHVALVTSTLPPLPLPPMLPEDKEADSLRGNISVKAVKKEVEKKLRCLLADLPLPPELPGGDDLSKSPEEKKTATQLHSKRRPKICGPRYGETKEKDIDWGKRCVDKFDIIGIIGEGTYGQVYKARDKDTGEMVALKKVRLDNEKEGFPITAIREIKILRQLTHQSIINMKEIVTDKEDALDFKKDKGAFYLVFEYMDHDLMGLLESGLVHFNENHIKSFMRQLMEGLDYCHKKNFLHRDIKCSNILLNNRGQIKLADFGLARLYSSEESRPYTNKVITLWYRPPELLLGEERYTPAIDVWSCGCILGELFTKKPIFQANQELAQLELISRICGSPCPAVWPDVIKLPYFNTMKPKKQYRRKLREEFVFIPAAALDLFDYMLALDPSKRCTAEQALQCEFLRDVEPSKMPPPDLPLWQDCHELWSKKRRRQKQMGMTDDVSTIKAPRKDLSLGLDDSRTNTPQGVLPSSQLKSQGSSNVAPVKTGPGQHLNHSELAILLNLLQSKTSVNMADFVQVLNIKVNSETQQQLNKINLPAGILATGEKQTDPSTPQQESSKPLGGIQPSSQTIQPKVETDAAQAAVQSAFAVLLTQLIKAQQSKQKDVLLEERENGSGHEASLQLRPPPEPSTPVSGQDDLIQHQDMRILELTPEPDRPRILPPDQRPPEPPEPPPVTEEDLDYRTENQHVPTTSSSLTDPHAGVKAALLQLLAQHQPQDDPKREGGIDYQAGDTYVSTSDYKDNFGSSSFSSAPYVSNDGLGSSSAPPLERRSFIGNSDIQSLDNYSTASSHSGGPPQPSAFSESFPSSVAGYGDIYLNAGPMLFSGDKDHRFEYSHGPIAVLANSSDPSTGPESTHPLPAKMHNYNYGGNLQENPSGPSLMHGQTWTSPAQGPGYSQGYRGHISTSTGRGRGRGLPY
Chain of CDK13 (O75909 whole entry partner): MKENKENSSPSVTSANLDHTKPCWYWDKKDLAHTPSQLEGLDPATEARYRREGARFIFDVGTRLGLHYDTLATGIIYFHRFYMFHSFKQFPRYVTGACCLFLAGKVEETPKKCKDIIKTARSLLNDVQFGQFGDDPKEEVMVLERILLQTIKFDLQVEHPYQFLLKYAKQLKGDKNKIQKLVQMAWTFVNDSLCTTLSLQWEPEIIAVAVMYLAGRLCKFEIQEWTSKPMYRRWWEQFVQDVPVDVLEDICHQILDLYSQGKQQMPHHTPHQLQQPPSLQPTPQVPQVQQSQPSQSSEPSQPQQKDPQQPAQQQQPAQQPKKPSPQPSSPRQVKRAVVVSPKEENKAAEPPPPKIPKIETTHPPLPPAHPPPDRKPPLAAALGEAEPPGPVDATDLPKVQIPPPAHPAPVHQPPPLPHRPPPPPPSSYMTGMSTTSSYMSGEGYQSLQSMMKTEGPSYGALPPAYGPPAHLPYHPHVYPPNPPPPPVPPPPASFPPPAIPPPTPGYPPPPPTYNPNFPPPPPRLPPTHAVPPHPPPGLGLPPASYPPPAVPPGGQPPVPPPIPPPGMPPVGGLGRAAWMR

Chain of CDK12 (Q9NYV4 whole entry): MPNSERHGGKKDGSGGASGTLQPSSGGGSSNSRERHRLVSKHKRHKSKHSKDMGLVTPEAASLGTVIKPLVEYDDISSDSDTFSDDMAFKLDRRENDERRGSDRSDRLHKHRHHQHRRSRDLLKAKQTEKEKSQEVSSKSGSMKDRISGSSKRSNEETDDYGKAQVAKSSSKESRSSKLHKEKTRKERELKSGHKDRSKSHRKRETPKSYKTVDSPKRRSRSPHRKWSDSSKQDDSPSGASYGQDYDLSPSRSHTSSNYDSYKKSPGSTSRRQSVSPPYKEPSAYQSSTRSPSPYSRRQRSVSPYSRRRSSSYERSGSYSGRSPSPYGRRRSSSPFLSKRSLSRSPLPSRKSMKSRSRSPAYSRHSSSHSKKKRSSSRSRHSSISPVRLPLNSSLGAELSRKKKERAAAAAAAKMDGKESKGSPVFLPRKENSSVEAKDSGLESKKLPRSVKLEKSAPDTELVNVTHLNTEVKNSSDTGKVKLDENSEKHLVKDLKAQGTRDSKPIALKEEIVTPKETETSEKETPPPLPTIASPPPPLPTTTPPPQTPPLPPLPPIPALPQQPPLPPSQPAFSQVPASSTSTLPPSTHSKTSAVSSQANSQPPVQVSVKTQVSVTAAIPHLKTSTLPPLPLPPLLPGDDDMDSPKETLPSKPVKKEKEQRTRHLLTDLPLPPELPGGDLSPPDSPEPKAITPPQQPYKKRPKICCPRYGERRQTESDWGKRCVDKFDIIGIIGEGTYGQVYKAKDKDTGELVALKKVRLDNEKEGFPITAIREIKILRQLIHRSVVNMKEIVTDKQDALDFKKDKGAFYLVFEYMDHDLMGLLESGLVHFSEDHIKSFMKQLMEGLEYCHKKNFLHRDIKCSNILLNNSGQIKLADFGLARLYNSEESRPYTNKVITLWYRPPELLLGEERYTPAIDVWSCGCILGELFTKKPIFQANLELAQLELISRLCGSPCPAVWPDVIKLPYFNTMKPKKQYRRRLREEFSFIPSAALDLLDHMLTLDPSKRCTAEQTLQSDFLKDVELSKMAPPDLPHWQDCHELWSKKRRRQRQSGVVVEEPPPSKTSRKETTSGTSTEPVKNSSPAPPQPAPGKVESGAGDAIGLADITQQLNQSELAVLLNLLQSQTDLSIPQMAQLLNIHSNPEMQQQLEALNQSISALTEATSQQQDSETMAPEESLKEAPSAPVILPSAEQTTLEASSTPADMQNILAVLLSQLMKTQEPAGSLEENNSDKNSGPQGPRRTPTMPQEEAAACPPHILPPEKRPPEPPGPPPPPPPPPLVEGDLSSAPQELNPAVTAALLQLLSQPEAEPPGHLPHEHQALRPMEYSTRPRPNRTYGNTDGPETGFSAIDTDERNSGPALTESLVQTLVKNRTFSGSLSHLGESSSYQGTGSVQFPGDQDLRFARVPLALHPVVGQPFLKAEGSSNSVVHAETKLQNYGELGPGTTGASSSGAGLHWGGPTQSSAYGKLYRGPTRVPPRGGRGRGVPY
Chain of CDK12 (O75909 whole entry partner): as the sequence (O75909 whole entry partner) above

SMILES: CC(=O)N(c1ccc(N2CCN(C(=O)CNc3ccc4c(c3)C(=O)N(C3CCC(=O)NC3=O)C4=O)CC2)cc1)[C@H]1CC[C@H](Nc2ncc3ccccc3n2)CC1 (stereo partly drawn) [Formula 101, N-(4-(4-((2-(2,6-dioxopiperidin-3-yl)-1,3-dioxoisoindolin-5-yl)aminoacetyl)piperazin-1-yl)phenyl)-N-((1R,4R)-4-(quinazolin-2-ylamino)cyclohexyl)acetamide]
- DC50 [1]: 1000 to 3000 nM
- DC50 [2]: 1000 to 3000 nM

SMILES: CC(=O)N(c1ccc(-c2ccc(CN3CCN(c4ccc5c(c4)C(=O)N(C4CCC(=O)NC4=O)C5=O)CC3)nc2)cc1)[C@H]1CC[C@H](Nc2ncc3ccccc3n2)CC1 (stereo partly drawn) [Formula 102, N-(4-(6-((4-(2-(2,6-dioxopiperidin-3-yl)-1,3-dioxoisoindolin-5-yl)piperazin-1-yl)methyl)pyridin-3-yl)phenyl)-N-((1R,4R)-4-(quinazolin-2-ylamino)cyclohexyl)acetamide]
- DC50 [1]: 500 to 1000 nM
- DC50 [2]: 100 to 500 nM

SMILES: CC(=O)N(c1ccc(N2CCN(c3ccc4c(c3)C(=O)N(C3CCC(=O)NC3=O)C4=O)CC2)cc1)[C@H]1CC[C@H](Nc2ncc3ccccc3n2)CC1 (stereo partly drawn) [Formula 104, N-(4-(4-(2-(2,6-dioxopiperidin-3-yl)-1,3-dioxoisoindolin-5-yl)piperazin-1-yl)phenyl)-N-((1R,4R)-4-(quinazolin-2-ylamino)cyclohexyl)acetamide]
- DC50 [1]: 3000 to 10000 nM
- DC50 [2]: 3000 to 10000 nM

SMILES: CC(=O)N(c1ccc(N2CCN(CC3CCN(c4ccc5c(c4)C(=O)N(C4CCC(=O)NC4=O)C5=O)CC3)CC2)cc1)[C@H]1CC[C@H](Nc2ncc3ccccc3n2)CC1 (some centres unmarked) [Formula 106]
- DC50 [1]: 500 to 1000 nM
- DC50 [2]: 500 to 1000 nM

SMILES: CC(=O)N(c1ccc(-c2cnc(N3CCN(c4ccc5c(c4)C(=O)N(C4CCC(=O)NC4=O)C5=O)CC3)nc2)cc1)[C@H]1CC[C@H](Nc2ncc3ccccc3n2)CC1 (some centres unmarked) [Formula 107]
- DC50 [1]: < 100 nM
- DC50 [2]: < 100 nM

SMILES: CC(=O)N(c1ccc(-c2cnc(OC3CN(c4ccc5c(c4)C(=O)N(C4CCC(=O)NC4=O)C5=O)C3)nc2)cc1)[C@H]1CC[C@H](Nc2ncc3ccccc3n2)CC1 (stereo partly drawn) [Formula 108, N-(4-(2-((1-(2-(2,6-dioxopiperidin-3-yl)-1,3-dioxoisoindolin-5-yl)azetidin-3-yl)oxy)pyrimidin-5-yl)phenyl)-N-((1R,4R)-4-(quinazolin-2-ylamino)cyclohexyl)acetamide]
- DC50 [1]: 100 to 500 nM
- DC50 [2]: 100 to 500 nM

SMILES: CC(=O)N(c1ccc(-c2cnc(O[C@@H]3CCN(c4ccc5c(c4)C(=O)N(C4CCC(=O)NC4=O)C5=O)C3)nc2)cc1)[C@H]1CC[C@H](Nc2ncc3ccccc3n2)CC1 (stereo partly drawn) [Formula 109, N-(4-(2-(((3R)-1-(2-(2,6-dioxopiperidin-3-yl)-1,3-dioxoisoindolin-5-yl)pyrrolidin-3-yl)oxy)pyrimidin-5-yl)phenyl)-N-((1R,4R)-4-(quinazolin-2-ylamino)cyclohexyl)acetamide]
- DC50 [1]: 100 to 500 nM
- DC50 [2]: 100 to 500 nM

SMILES: CC(=O)N(c1ccc(-c2cnc(O[C@H]3CCN(c4ccc5c(c4)C(=O)N(C4CCC(=O)NC4=O)C5=O)C3)nc2)cc1)[C@H]1CC[C@H](Nc2ncc3ccccc3n2)CC1 (stereo partly drawn) [Formula 110, N-(4-(2-(((3S)-1-(2-(2,6-dioxopiperidin-3-yl)-1,3-dioxoisoindolin-5-yl)pyrrolidin-3-yl)oxy)pyrimidin-5-yl)phenyl)-N-((1R,4R)-4-(quinazolin-2-ylamino)cyclohexyl)acetamide]
- DC50 [1]: 1000 to 3000 nM
- DC50 [2]: 500 to 1000 nM

SMILES: CC(=O)N(c1ccc(-c2ccn(CC3CCN(c4ccc5c(c4)C(=O)N(C4CCC(=O)NC4=O)C5=O)CC3)c(=O)c2)cc1)[C@H]1CC[C@H](Nc2ncc3ccccc3n2)CC1 (stereo partly drawn) [Formula 111, N-(4-(1-((1-(2-(2,6-dioxopiperidin-3-yl)-1,3-dioxoisoindolin-5-yl)piperidin-4-yl)methyl)-2-oxo-1,2-dihydropyridin-4-yl)phenyl)-N-((1R,4R)-4-(quinazolin-2-ylamino)cyclohexyl)acetamide]
- DC50 [1]: 1000 to 3000 nM
- DC50 [2]: 1000 to 3000 nM

SMILES: CC(=O)N(c1ccc(-c2ccn(CC3CN(c4ccc5c(c4)C(=O)N(C4CCC(=O)NC4=O)C5=O)C3)c(=O)c2)cc1)[C@H]1CC[C@H](Nc2ncc3ccccc3n2)CC1 (stereo partly drawn) [Formula 112, N-(4-(1-((1-(2-(2,6-dioxopiperidin-3-yl)-1,3-dioxoisoindolin-5-yl)azetidin-3-yl)methyl)-2-oxo-1,2-dihydropyridin-4-yl)phenyl)-N-((1R,4R)-4-(quinazolin-2-ylamino)cyclohexyl)acetamide]
- DC50 [1]: 100 to 500 nM
- DC50 [2]: 100 to 500 nM

SMILES: CC(=O)N(c1ccc(-c2cnn(C3CN(c4ccc5c(c4)C(=O)N(C4CCC(=O)NC4=O)C5=O)C3)c2)cc1)[C@H]1CC[C@H](Nc2ncc3ccccc3n2)CC1 (stereo partly drawn) [Formula 113, N-(4-(1-(1-(2-(2,6-dioxopiperidin-3-yl)-1,3-dioxoisoindolin-5-yl)azetidin-3-yl)-1H-pyrazol-4-yl)phenyl)-N-((1R,4R)-4-(quinazolin-2-ylamino)cyclohexyl)acetamide]
- DC50 [1]: 3000 to 10000 nM
- DC50 [2]: 3000 to 10000 nM

SMILES: CC(=O)N(c1ccc(-c2cnc(N3CCN(c4cc5c(cc4F)C(=O)N(C4CCC(=O)NC4=O)C5=O)CC3)nc2)cc1)[C@H]1CC[C@H](Nc2ncc3ccccc3n2)CC1 (stereo partly drawn) [Formula 114, N-(4-(2-(4-(2-(2,6-dioxopiperidin-3-yl)-6-fluoro-1,3-dioxoisoindolin-5-yl)piperazin-1-yl)pyrimidin-5-yl)phenyl)-N-((1R,4R)-4-(quinazolin-2-ylamino)cyclohexyl)acetamide]
- DC50 [1]: 1000 to 3000 nM
- DC50 [2]: 1000 to 3000 nM

SMILES: CC(=O)N(c1ccc(-c2cnn(CC3CN(c4ccc5c(c4)C(=O)N(C4CCC(=O)NC4=O)C5=O)C3)c2)cc1)[C@H]1CC[C@H](Nc2ncc3ccccc3n2)CC1 (stereo partly drawn) [Formula 115, N-(4-(1-((1-(2-(2,6-dioxopiperidin-3-yl)-1,3-dioxoisoindolin-5-yl)azetidin-3-yl)methyl)-1H-pyrazol-4-yl)phenyl)-N-((1R,4R)-4-(quinazolin-2-ylamino)cyclohexyl)acetamide]
- DC50 [1]: 1000 to 3000 nM
- DC50 [2]: 1000 to 3000 nM

SMILES: CC(=O)N(c1ccc(-c2cnn(C3CCN(c4ccc5c(c4)C(=O)N(C4CCC(=O)NC4=O)C5=O)C3)c2)cc1)[C@H]1CC[C@H](Nc2ncc3ccccc3n2)CC1 (stereo partly drawn) [Formula 116, N-(4-(1-(1-(2-(2,6-dioxopiperidin-3-yl)-1,3-dioxoisoindolin-5-yl)pyrrolidin-3-yl)-1H-pyrazol-4-yl)phenyl)-N-((1R,4R)-4-(quinazolin-2-ylamino)cyclohexyl)acetamide]
- DC50 [1]: 3000 to 10000 nM
- DC50 [2]: 3000 to 10000 nM

SMILES: CC(=O)N(c1ccc(-c2cnn(C3CCN(c4ccc5c(c4)C(=O)N(C4CCC(=O)NC4=O)C5=O)CC3)c2)cc1)[C@H]1CC[C@H](Nc2ncc3ccccc3n2)CC1 (stereo partly drawn) [Formula 117, N-(4-(1-(1-(2-(2,6-dioxopiperidin-3-yl)-1,3-dioxoisoindolin-5-yl)piperidin-4-yl)-1H-pyrazol-4-yl)phenyl)-N-((1R,4R)-4-(quinazolin-2-ylamino)cyclohexyl)acetamide]
- DC50 [1]: 1000 to 3000 nM
- DC50 [2]: 500 to 1000 nM

SMILES: CC(=O)N(c1ccc(N2CCN(C(=O)/C=C/c3ccc4c(c3)C(=O)N(C3CCC(=O)NC3=O)C4=O)CC2)cc1)[C@H]1CC[C@H](Nc2ncc3ccccc3n2)CC1 (stereo partly drawn) [Formula 118, N-(4-(4-((E)-3-(2-(2,6-dioxopiperidin-3-yl)-1,3-dioxoisoindolin-5-yl)acryloyl)piperazin-1-yl)phenyl)-N-((1R,4R)-4-(quinazolin-2-ylamino)cyclohexyl)acetamide]
- DC50 [1]: 1000 to 3000 nM
- DC50 [2]: 500 to 1000 nM
